Measured values reported in patent US8067424B2, “Selective inhibitors for cyclin-dependent kinases” (Emory University, priority 2007, dated 2011).
Like-named read-outs stand apart in the source and are kept apart here.

Legend:
Assay type in all cases: biochemical
PRK2 = PRK2 (Homo sapiens, UniProt Q16513); assay: Kinase screen: PRK2 assay
Description: (§1) Generally, the same procedure was used for all assays. Since the total assay volume was 25.5 microliters, 0.5 microliters of inhibitors at 51× assay concentration were added to the plates before any other addition.
(§2) The basic procedure was to add 0.5 microliters inhibitor/control in DMSO to plate. Fifteen microliters of enzyme/substrate/buffer mix were added and incubated for 5 min. Ten microliters MgATP at the relevant concentration were added and incubated for 30 min. The assay was stopped by adding 5 microliters of 3% orthophosphoric acid. The assay was transferred to a p81 filter plate and read in a scintillation counter of 30 sec/well. Note that this assay procedure was not followed for MKK1, which instead involved a two-step assay, and PKC alpha, which required the addition of lipid vesicles.
PRK2 assay: 5-20 mU of PRK2 (diluted in 50 mM Tris (pH 7.5), 0.1 mM EGTA, 1 mg/ml BSA, 0.1%, b-Mercaptoethanol) was assayed against Long S6 peptide ([…]) (SEQ ID NO: 10) in a final volume of 25.5 μl containing 50 mM Tris (pH 7.5), 0.1 mM EGTA, 0.1%, b-Mercaptoethanol, 30 μM Long S6 peptide, 10 mM magnesium acetate and 0.005 mM [33P-g-ATP] (500-1000 cpm/pmole) and incubated for 30 mins at room temperature. Assays were stopped by addition of 5 μl of 0.5M (3%) orthophosphoric acid. Assays were harvested onto P81 Unifilter plates using a wash buffer of 50 mM orthophosphoric acid.

GSK3β = GSK3β (Homo sapiens, UniProt P49841); assay: Kinase screen: GSK3b assay
Description: as §1, §2
(50-1000 cpm/pmole) and incubated for 30 min at room temperature. Assays were stopped by addition of 5 μl of 0.5 M (3%) orthophosphoric acid and then harvested onto P81 Unifilter plates with a wash buffer of 50 mM orthophosphoric acid.

PAK5 = PAK5 (Homo sapiens, UniProt Q9P286); assay: Kinase screen: PAK5 (PAK7) assay
Description: as §1, §2
(§3) PAK5 (PAK7) assay: PAK5 (PAK7)(5-20 mU diluted in 50 mM Tris pH 7.5, 0.1 mM EGTA, 0.1% b-mercaptoethanol, 1 mg/ml BSA) was assayed against a substrate peptide ([…]) (SEQ ID NO: 30) in a final volume of 25.5 μl containing 50 mM Tris pH 7.5, 0.05% b-mercaptoethanol, 300 μM substrate peptide, 10 mM magnesium acetate and 0.02 mM [33P-g-ATP] (50-1000 cpm/pmole) and incubated for 30 min at room temperature. Assays were stopped by addition of 5 μl of 0.5 M (3%) orthophosphoric acid and then harvested onto P81 Unifilter plates with a wash buffer of 50 mM orthophosphoric acid.

CHK2 = CHK2 (Homo sapiens, UniProt O96017); assay: Kinase screen: CHK2 assay
Description: as §1, §2
CHK2 assay: CHK2 (5-20 mU diluted in 20 mM MOPS pH 7.5, 1 mM EDTA, 0.1% b-mercaptoethanol, 0.01% Brij-35, 5% glycerol, 1 mg/ml BSA) was assayed against CHKtide substrate peptide ([…]) (SEQ ID NO: 12) in a final volume of 25.5 μl containing 8 mM MOPS pH 7.0, 0.2 mM EDTA, 200 μM CHKtide, 10 mM magnesium acetate and 0.02 mM [33P-g-ATP] (50-1000 cpm/pmole) and incubated for 30 min at room temperature Assays were stopped by addition of 5 μl of 0.5 M (3%) orthophosphoric acid and then harvested onto P81 Unifilter plates with a wash buffer of 50 mM orthophosphoric acid.

IGF-1R = IGF-1R (Homo sapiens, UniProt P08069); assay: Kinase screen: IGF-1R assay; conditions: 10 micromolar compound; for remaining activity at 10 µM: read-out: mean activity remaining (as a percentage of the original activity), IGF1-R
Description: as §1, §2
as §3, with “IGF-1R” for “PAK5 (PAK7)”, “IGF-1R (5-20” for “PAK5 (PAK7)(5-20”, “EGTA,” for “EGTA, 0.1% b-mercaptoethanol,”, “NO:” for “NO: 30)”, “7.5,” for “7.5, 0.05% b-mercaptoethanol,”, “0.005” for “0.02”

[1] = 10 micromolar compound, read-out: mean activity remaining (as a percentage of the original activity), PRK2
[2] = 10 micromolar compound, read-out: mean activity remaining (as a percentage of the original activity), GSK 3b
[3] = 10 micromolar compound, read-out: mean activity remaining (as a percentage of the original activity), PAK5
[4] = 10 micromolar compound, read-out: mean activity remaining (as a percentage of the original activity), CHK 2

## CC(C)c1cnn2c(NCc3ccccc3)cc(NCCCCCCCN)nc12 [BS-181]
PRK2; PRK2, 10 μM, read-out: Mean Remaining Enzyme Activity (%)
  remaining activity at 10 µM: 90%
GSK3β; GSK3β, 10 μM, read-out: Mean Remaining Enzyme Activity (%)
  remaining activity at 10 µM: 112%
PAK5; PAK5, 10 μM, read-out: Mean Remaining Enzyme Activity (%)
  remaining activity at 10 µM: 80%
CHK2; CHK2, 10 μM, read-out: Mean Remaining Enzyme Activity (%)
  remaining activity at 10 µM: 36%

## C=C[C@H](CO)Nc1cc(NCc2ccccc2)n2ncc(C(C)C)c2n1 [ICEC0065]
PRK2; [1]
  remaining activity at 10 µM: 105%
GSK3β; [2]
  remaining activity at 10 µM: 92%
PAK5; [3]
  remaining activity at 10 µM: 81%
CHK2; [4]
  remaining activity at 10 µM: 81%
IGF-1R
  remaining activity at 10 µM: 63%

## CC[C@H](CO)Nc1cc(NCc2ccccc2)n2ncc(C(C)C)c2n1 [ICEC0067]
PRK2; [1]
  remaining activity at 10 µM: 96%
GSK3β; [2]
  remaining activity at 10 µM: 72%
PAK5; [3]
  remaining activity at 10 µM: 89%
CHK2; [4]
  remaining activity at 10 µM: 70%
IGF-1R
  remaining activity at 10 µM: 63%

## CC(C)c1cnn2c(NCc3ccccc3)cc(N[C@@H](CO)[C@H](O)CO)nc12 [ICEC0318, (3S)-3-(7-(Benzylamino)-3-isopropylpyrazolo[1,5-a]pyrimidin-5-ylamino)butane-1,2,4-triol]
PRK2; [1]
  remaining activity at 10 µM: 106%
GSK3β; [2]
  remaining activity at 10 µM: 63%
PAK5; [3]
  remaining activity at 10 µM: 65%
CHK2; [4]
  remaining activity at 10 µM: 61%
IGF-1R
  remaining activity at 10 µM: 67%

## CC(C)c1cnn2c(NCc3ccccc3F)cc(NCCCCCN)nc12 [ICEC-0232]
PRK2; 10 micromolar compound
  mean activity remaining (as a percentage of the original activity), PRK2: 106%
GSK3β; 10 micromolar compound
  mean activity remaining (as a percentage of the original activity), GSK 3b: 70%
PAK5; 10 micromolar compound
  mean activity remaining (as a percentage of the original activity), PAK5: 81%
CHK2; 10 micromolar compound
  mean activity remaining (as a percentage of the original activity), CHK 2: 15%
IGF-1R
  mean activity remaining (as a percentage of the original activity), IGF1-R: 17%
